Values quoted from earlier work in patent US20110287061A1 (priority 2010, published 2011).

Legend:
gray hair [1] = conditions: 50 patients with gray hair, daily administration for two months
gray hair [2] = conditions: of 20 patients taking varying amounts daily for other conditions
hair loss = conditions: administered together with Saw Palmetto; individuals with mild to moderate hair loss

SMILES | hair colour change (gray hair [1]) | cases of dramatic hair color change and hair re-growth (gray hair [2]) [cases] | hair growth (hair loss)
Nc1ccc(C(=O)O)cc1 [PABA, 4-aminobenzoic acid] | marked darkening of the hair | 5 | 
CC[C@H](CC[C@@H](C)[C@H]1CC[C@H]2[C@@H]3CC=C4C[C@@H](O)CC[C@]4(C)[C@H]3CC[C@]12C)C(C)C [beta-sitosterol] |  |  | healthy hair growth
